How the values were obtained:
Assay type in all cases: in vivo
[1] = tested on: corn; experiment: Test Example-4: phytotoxicity by a foliage treatment after weeds are generated under upland field conditions; settings: 500 g a.i/ha, foliage treatment after emergence, about 14 days after treatment, score 0-5
How it was run: (§1)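 Weeds sown in upland soil (65 cm^2 vat) and grown 14 days, then foliage-sprayed with diluted wettable powder or emulsifiable concentrate at a predetermined dosage in 4000 L water per hectare. Weed control and corn phytotoxicity were scored about 14 days after treatment on a 0–5 scale.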

[2] = tested on: other annual broad leaf weeds (Lindernia procumbens, Rotala indica, Elatine triandra); experiment: Test Example-1: herbicidal effect by a treatment before weeds are generated under submerged conditions; settings: 500 g a.i/ha, pre-emergence treatment, about 15 days after treatment, score 0-5
How it was run: (§2)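 Paddy-soil cups were puddled, sown with the weeds and kept submerged. On the seeding day, diluted wettable powder or emulsifiable concentrate was applied as a submersing treatment at a predetermined dosage. Herbicidal effect was scored 0–5 about 15 days after treatment.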

[3] = tested on: Scirpus juncoides (bulrush); experiment: as above; settings: 500 g a.i/ha, pre-emergence treatment, about 15 days after treatment, score 0-5
How it was run: as §2

[4] = tested on: Echinochloa oryzicola (barnyard grass); experiment: as above; settings: 500 g a.i/ha, pre-emergence treatment, about 15 days after treatment, score 0-5
How it was run: as §2

[5] = tested on: Cyperus difformis (smallflower umbrella plant); experiment: as above; settings: 500 g a.i/ha, pre-emergence treatment, about 15 days after treatment, score 0-5
How it was run: as §2

[6] = tested on: Eleocharis acicularis (needle spikerush); experiment: as above; settings: 500 g a.i/ha, pre-emergence treatment, about 15 days after treatment, score 0-5
How it was run: as §2

[7] = tested on: Monochoria vaginalis (monochoria); experiment: as above; settings: 500 g a.i/ha, pre-emergence treatment, about 15 days after treatment, score 0-5
How it was run: as §2

[8] = tested on: Amaranthus viridis (green amaranthus); experiment: Test Example-4: herbicidal effect by a foliage treatment after weeds are generated under upland field conditions; settings: 500 g a.i/ha, foliage treatment after emergence, about 14 days after treatment, score 0-5
How it was run: as §1

[9] = tested on: Abutilon theophrasti (velvetleaf); experiment: as above; settings: 500 g a.i/ha, foliage treatment after emergence, about 14 days after treatment, score 0-5
How it was run: as §1

[10] = tested on: Chenopodium album (common lambsquarters); experiment: as above; settings: 500 g a.i/ha, foliage treatment after emergence, about 14 days after treatment, score 0-5
How it was run: as §1

Row | Structure (SMILES) | Phytotoxicity Corn [1] | Herbicidal effect Broadleaf weed [2] | Herbicidal effect Scirpus juncoides [3] | Herbicidal effect Echinochloa oryzicola [4] | Herbicidal effect Cyperus difformis [5] | Herbicidal effect Eleocharis acicularis [6] | Herbicidal effect Monochoria vaginalis [7] | Herbicidal effect Amaranthus viridis [8] | Herbicidal effect Abutilon theophrast [9] | Herbicidal effect Chenopodium album [10]
1 | COCOc1cc(-c2c(Cl)n3n(c2=O)CCCC3)c(F)cc1F [Example 1-90] | 3 (Herbicidal effect/phytotoxicity was 50% to 70%) | 5 (Herbicidal effect/phytotoxicity was 90% or greater) | 5 (Herbicidal effect/phytotoxicity was 90% or greater) | 5 (Herbicidal effect/phytotoxicity was 90% or greater) | 5 (Herbicidal effect/phytotoxicity was 90% or greater) | 5 (Herbicidal effect/phytotoxicity was 90% or greater) | 5 (Herbicidal effect/phytotoxicity was 90% or greater) | 5 (Herbicidal effect/phytotoxicity was 90% or greater) | 5 (Herbicidal effect/phytotoxicity was 90% or greater) | 5 (Herbicidal effect/phytotoxicity was 90% or greater)
2 | CC=CCOc1cc(-c2c(Cl)n3n(c2=O)CCCC3)c(F)cc1Cl [Example 1-209] | 2 (Herbicidal effect/phytotoxicity was 30% to 50%) | 5 (Herbicidal effect/phytotoxicity was 90% or greater) | 5 (Herbicidal effect/phytotoxicity was 90% or greater) | 5 (Herbicidal effect/phytotoxicity was 90% or greater) | 5 (Herbicidal effect/phytotoxicity was 90% or greater) | 5 (Herbicidal effect/phytotoxicity was 90% or greater) | 5 (Herbicidal effect/phytotoxicity was 90% or greater) | 5 (Herbicidal effect/phytotoxicity was 90% or greater) | 5 (Herbicidal effect/phytotoxicity was 90% or greater) | 5 (Herbicidal effect/phytotoxicity was 90% or greater)
3 | C=CCCOc1cc(-c2c(Cl)n3n(c2=O)CCCC3)c(F)cc1Cl [Example 1-222] | 2 (Herbicidal effect/phytotoxicity was 30% to 50%) | 5 (Herbicidal effect/phytotoxicity was 90% or greater) | 5 (Herbicidal effect/phytotoxicity was 90% or greater) | 5 (Herbicidal effect/phytotoxicity was 90% or greater) | 5 (Herbicidal effect/phytotoxicity was 90% or greater) | 5 (Herbicidal effect/phytotoxicity was 90% or greater) | 5 (Herbicidal effect/phytotoxicity was 90% or greater) | 5 (Herbicidal effect/phytotoxicity was 90% or greater) | 5 (Herbicidal effect/phytotoxicity was 90% or greater) | 5 (Herbicidal effect/phytotoxicity was 90% or greater)
4 | CC#CCOc1cc(-c2c(Cl)n3n(c2=O)CCCC3)c(F)cc1F [Example 1-115] | 3 (Herbicidal effect/phytotoxicity was 50% to 70%) | 5 (Herbicidal effect/phytotoxicity was 90% or greater) | 5 (Herbicidal effect/phytotoxicity was 90% or greater) | 5 (Herbicidal effect/phytotoxicity was 90% or greater) | 5 (Herbicidal effect/phytotoxicity was 90% or greater) | 5 (Herbicidal effect/phytotoxicity was 90% or greater) | 5 (Herbicidal effect/phytotoxicity was 90% or greater) | 5 (Herbicidal effect/phytotoxicity was 90% or greater) | 5 (Herbicidal effect/phytotoxicity was 90% or greater) | 5 (Herbicidal effect/phytotoxicity was 90% or greater)
5 | C#CC(C)Oc1cc(-c2c(Cl)n3n(c2=O)CCCC3)c(F)cc1F (stereo not shown) [Example 1-114] | 3 (Herbicidal effect/phytotoxicity was 50% to 70%) | 5 (Herbicidal effect/phytotoxicity was 90% or greater) | 5 (Herbicidal effect/phytotoxicity was 90% or greater) | 5 (Herbicidal effect/phytotoxicity was 90% or greater) | 5 (Herbicidal effect/phytotoxicity was 90% or greater) | 5 (Herbicidal effect/phytotoxicity was 90% or greater) | 5 (Herbicidal effect/phytotoxicity was 90% or greater) | 5 (Herbicidal effect/phytotoxicity was 90% or greater) | 5 (Herbicidal effect/phytotoxicity was 90% or greater) | 5 (Herbicidal effect/phytotoxicity was 90% or greater)
6 | C=CCOc1cc(-c2c(Cl)n3n(c2=O)CCCC3)c(F)cc1Cl [Example 1-201] | 2 (Herbicidal effect/phytotoxicity was 30% to 50%) | 5 (Herbicidal effect/phytotoxicity was 90% or greater) | 5 (Herbicidal effect/phytotoxicity was 90% or greater) | 5 (Herbicidal effect/phytotoxicity was 90% or greater) | 5 (Herbicidal effect/phytotoxicity was 90% or greater) | 5 (Herbicidal effect/phytotoxicity was 90% or greater) | 5 (Herbicidal effect/phytotoxicity was 90% or greater) | 5 (Herbicidal effect/phytotoxicity was 90% or greater) | 5 (Herbicidal effect/phytotoxicity was 90% or greater) | 5 (Herbicidal effect/phytotoxicity was 90% or greater)
7 | C#CCOc1cc(-c2c(Cl)n3n(c2=O)CCCCC3)ccc1Cl [Example 1-63] | 1 (Herbicidal effect/phytotoxicity was 10% to 30%) | 5 (Herbicidal effect/phytotoxicity was 90% or greater) | 5 (Herbicidal effect/phytotoxicity was 90% or greater) | 5 (Herbicidal effect/phytotoxicity was 90% or greater) | 5 (Herbicidal effect/phytotoxicity was 90% or greater) | 5 (Herbicidal effect/phytotoxicity was 90% or greater) | 5 (Herbicidal effect/phytotoxicity was 90% or greater) | 5 (Herbicidal effect/phytotoxicity was 90% or greater) | 5 (Herbicidal effect/phytotoxicity was 90% or greater) | 5 (Herbicidal effect/phytotoxicity was 90% or greater)
8 | O=c1c(-c2ccc(Cl)cc2F)c(Cl)n2n1CCCC2 [Example 1-125] | 1 (Herbicidal effect/phytotoxicity was 10% to 30%) | 5 (Herbicidal effect/phytotoxicity was 90% or greater) | 5 (Herbicidal effect/phytotoxicity was 90% or greater) | 5 (Herbicidal effect/phytotoxicity was 90% or greater) | 5 (Herbicidal effect/phytotoxicity was 90% or greater) | 5 (Herbicidal effect/phytotoxicity was 90% or greater) | 5 (Herbicidal effect/phytotoxicity was 90% or greater) | 5 (Herbicidal effect/phytotoxicity was 90% or greater) | 5 (Herbicidal effect/phytotoxicity was 90% or greater) | 5 (Herbicidal effect/phytotoxicity was 90% or greater)
9 | CC(C)COc1cc(-c2c(Cl)n3n(c2=O)CCCC3)c(F)cc1Cl [Example 1-156] | 2 (Herbicidal effect/phytotoxicity was 30% to 50%) | 5 (Herbicidal effect/phytotoxicity was 90% or greater) | 5 (Herbicidal effect/phytotoxicity was 90% or greater) | 5 (Herbicidal effect/phytotoxicity was 90% or greater) | 5 (Herbicidal effect/phytotoxicity was 90% or greater) | 5 (Herbicidal effect/phytotoxicity was 90% or greater) | 5 (Herbicidal effect/phytotoxicity was 90% or greater) | 5 (Herbicidal effect/phytotoxicity was 90% or greater) | 5 (Herbicidal effect/phytotoxicity was 90% or greater) | 5 (Herbicidal effect/phytotoxicity was 90% or greater)
10 | COc1cc(-c2c(Cl)n3n(c2=O)CCCC3)c(F)cc1Cl [Example 1-140] | 2 (Herbicidal effect/phytotoxicity was 30% to 50%) | 5 (Herbicidal effect/phytotoxicity was 90% or greater) | 5 (Herbicidal effect/phytotoxicity was 90% or greater) | 5 (Herbicidal effect/phytotoxicity was 90% or greater) | 5 (Herbicidal effect/phytotoxicity was 90% or greater) | 5 (Herbicidal effect/phytotoxicity was 90% or greater) | 5 (Herbicidal effect/phytotoxicity was 90% or greater) | 5 (Herbicidal effect/phytotoxicity was 90% or greater) | 5 (Herbicidal effect/phytotoxicity was 90% or greater) | 5 (Herbicidal effect/phytotoxicity was 90% or greater)

Source: US9580444B2, “Polycyclic pyrazolinone derivative and herbicide comprising same as effective component thereof” (priority 2013, dated 2017)
